Data on three compounds can be found in patent US4440757A, “Pharmaceutical composition comprising derivative of aminobenzoic acid for regulating prostaglandin” (priority 1978, dated 1984).

SMILES strings stand for the structures.

Data set [1] deals with streptozotocin diabetic rats. In words: Blood sugar of diabetic rats. It counts as in vivo, male Sprague-Dowley rats. To be noted: 100 mg/kg p.o., 6 hours, diabetic rat; not administered 412.1, normal 76.7. The method, then:
(§1) Groups of male Sprague-Dowley rats of body weight of about 200 g are used for the present experiments. Some groups of the rats were intravenously administered with streptozotocin at 80 mg/kg one to three months in advance of the beginning of the present experiment to be in a state of diabetes mellitus. Those rats of the same strain, the same sex and the same age without being administered with streptozotocin were used as control.
(§2) The present substances (Specimens Nos. 4, 7 and 8) were respectively administered to the groups of rats suffering from the artificial diabetes mellitus forcibly by oral route at a rate of 100 mg/kg as an aqueous solution in distilled water.
After 6 hours of the administration of the present substance, blood specimen was collected from the rat under anesthesia by ether in an amount of 0.5 ml/animal, and the content of blood sugar was measured by the enzymatic method.

For data set [2], the system named is Salmonella typhimurium TA 100. In words: Mutagenicity, reversion assay, TA 100. The data set is classed as cell-based. To be noted: 5,000 μg/plate; control 149. The protocol:
(ii) The strains TA 98 and TA 100 (both are histidine requiring) of Salmonella typhimurium were used in the reversion assay.
Into 2 ml of a soft agar culture medium (the medium itself contains 6 g of sodium chloride and 6 g of agar in 1000 ml of distilled water) to which one tenth by volume of an aqueous solution of 0.5 mM of biotin and 0.5 mM of histidine had been added, 0.1 ml of the bacterial suspension and 0.1 ml of an aqueous solution of the present substance were admixed and the mixture was layered on the minimum agar culture medium. After 2 days of incubation at 37° C., the number of revertant colonies was counted. Furylfuramide (AF-2) was used as the positive control.

The next data set deals with thoracic aorta, PGI2. As to the kind of experiment: PGI2 production in arterial tissue of diabetic rats. The data set is classed as in vivo, male Sprague-Dowley rats. Conditions: 100 mg/kg p.o., diabetic rat; not administered 0.07, normal 0.26. The method, then:
as §1, §2
In the next place, the amount of prostaglandin I2 produced in the arterial tissue was measured as follows:
Thoracic aorta of the rat was rapidly extirpated, washed with Krebs' buffer solution at a temperature of 4° C. and cut into thin rings of 1 to 2 mg in weight. Then, into 200 microliters of Krebs' buffer solution, 60 mg of the thus cut aorta were added and the mixture was incubated for 3 min at 22° C.
The amount of prostaglandin I2 (PGI2) produced by the cut aorta was determined on the supernatant liquid (1 to 10 microliters) of the above-mentioned incubated culture in the same manner as in Example 2 using the suppressing action of platelet aggregation as an index, however, using adenosine diphosphate as the agglutinating agent. After preparing a standard calibration curve using an authentic specimen of PGI2, the content of PGI2 of the above-mentioned supernatant liquid was obtained from the standard curve in ng/mg of wet weight of the arterial tissue.

In data set [3] the test system is female spontaneously hypertensive rats (SHR). In words: Diuretic effect and 6-keto PGF1α in blood. The data set is classed as in vivo, rat (SHR). Conditions: for Level of 6-keto PGF1α in blood: control 3.0. The method, then:
Groups of female spontaneously hypertensive rats (SHR) kept in fasting for 12 hours and abstained from water for 2 hours were treated by forced oral administration of the present substance (each of Specimens Nos. 4, 7 and 8) at respective rates of 1 and 5 g/kg dissolved in 8 ml (per 200 g b.w.) of an aqueous physiological saline solution, control group being administered only with the aqueous physiological saline solution in an amount of 8 ml/200 g b.w.
The amount of excreted urine of the rats was measured every hour from one hour after the administration for 6 times, and the percentages of the volume of urine to the volume of the aqueous physiological saline solution containing the present substance formerly administered (8 ml per 200 g b.w.) are shown in Table 19.
In the next place, after 6 hours of the administration, all animals were sacrificed to collect the whole blood for obtaining its plasma fraction. The ether-extract of the plasma fraction was separated by thin-layer chromatography and after converting the thus separated substances into methyloximesilyl derivatives, the variation of 6 keto PGF1α was examined by gas-chromatography-mass-spectrography.

Another data set relates to cats. In words: Pyrexia caused by pyrogen (Shigella dysentriae o-antigen) and PGE in c.s.f. It counts as in vivo, cat. The protocol:
The experiments were carried out on cats weighing 3 to 3.5 kg. In an aseptic operation under intraperitoneally administered sodium pentobarbitone at 36 mg/kg, a Collison cannula was implanted into the rostral part of the third ventricle of the cat.
A few days after implantation of the cannula, when the cat had recovered from the operation, specimens of cerebrospinal fluid were collected without anesthesia, whilst the cat was kept unrestrained in its cage, and its rectal temperature was recorded.
The specimens of cerebrospinal fluid (c.s.f.) were assayed immediately after collection, or after having been stored at -2° for 24 to 48 hours, and the determination of PGE in the specimens was carried out as in Example 9 using ^3 H-Prostaglandin E Radioimmunoassay Kit (manufactured by Clinical Assay Co., USA). Rectal temperature was recorded at room temperature (21° to 23° C.) with the thermistor probe inserted about 10 cm deep into the rectum.
As the pyrogen, somatic type o-antigen of Shigella dysentriae was used, and after dissolving 75 ng of the pyrogen into 0.15 ml of a pyrogen-free artificial c.s.f., the solution was injected into the third ventricle through the implanted cannula to induce fever.
After 2 hours of administration, the rectal temperature was measured to confirm the occurrence of pyrexia and then the present substance (each of Specimens Nos. 4, 7 and 8) was forcibly administered orally as an aqueous solution in distilled water at a rate of 100 mg/kg, control being administered only with distilled water in this time.
The rectal temperature of all animals was measured after one hour of the administration of the present substance.
The c.s.f. for the determination of its content of PGE was collected respectively before and after 2 hours of the injection of the pyrogen and after one hour of the administration of the present substance.

Data set [4] relates to washed platelets, malondialdehyde. In words: Level of malondialdehyde (MDA) of platelets. The data set is classed as cell-based, human. To be noted: Ca ionophore A-23187, 5 min, 37° C. The method, then:
PRP collected from human blood was centrifugated and washed to be "washed platelets". After adding one of the present substances (Specimens Nos. 4, 7 and 8) to the washed platelets, Caionophore A-23187 was further added to them and the mixture was incubated for 5 minutes at 37° C. Then, thiobarbituric acid was added to the incubated mixture, as a colour developer, and the mixture was extracted with a solvent mixture of methanol and butanol. The absorption at 535 nm was colorimetrically read to determine the amount of malondialdehyde (MDA). […] From this fact also, the participation of the present substance in the metabolism of PGs is presumable.

The mark [5] stands for this setting: 1 g/kg p.o., 2 hours, control 9.
The mark [6] stands for this setting: 1 g/kg p.o., 3 hours, control 22.
[7] abbreviates: 1 g/kg p.o., 4 hours, control 26.
[8] abbreviates: 1 g/kg p.o., 5 hours, control 28.
The mark [9] stands for this setting: 1 g/kg p.o., 6 hours, control 30.
Setting [10] is: 5 g/kg p.o., 2 hours, control 9.
[11] abbreviates: 5 g/kg p.o., 3 hours, control 22.
Setting [12] is: 5 g/kg p.o., 4 hours, control 26.
Where [13] appears, read: 5 g/kg p.o., 5 hours, control 28.
[14] abbreviates: 5 g/kg p.o., 6 hours, control 30.
The mark [15] stands for this setting: 1 hour after admin. Specimen, 100 mg/kg p.o., control 10.
Setting [16] is: 1 hour after admin. Specimen, 100 mg/kg p.o., control 40.7.
Where [17] appears, read: 2 hours after admin. pyrogen (before dosing).
Setting [18] is: before admin. pyrogen (before dosing).

Consider `O=C(O)c1ccc(NC2OC[C@@H](O)[C@H](O)[C@H]2O)cc1` (stereo partly drawn) [Specimen No. 7, Sodium p-aminobenzoate-N--D-xyloside], for which the Blood sugar in data set [1] was determined as 165.0 ± 11.0 mg/100 ml. For the same compound, the “Number of revertant colonies TA 100” value in data set [2] stood at 58 number per plate. In the data set with thoracic aorta, PGI2, this compound gave a PGI2 of 0.22 ± 0.02 ng/mg wet tissue. The Volume of urine in data set [3] (1 g/kg p.o., 1 hour, control 2) amounted to 4%; in data set [3] (setting [5]), 38%; in data set [3] (setting [6]), 45%; in data set [3] (setting [7]), 48%; in data set [3] (setting [8]) it was 63%; in data set [3] (setting [9]), 72%. The Volume of urine in data set [3] (5 g/kg p.o., 1 hour, control 2) was determined as 5%; in data set [3] (setting [10]), 50%; in data set [3] (setting [11]), 66%; in data set [3] (setting [12]) it was 80%; in data set [3] (setting [13]), 92%; in data set [3] (setting [14]), 100%. The “Level of 6-keto PGF1α in blood” value in data set [3] (1 g/kg p.o., 6 hours) came out at 3.5 ng/mL. In addition, the “Amount of PGE in c.s.f.” value is 6 ng/ml of c.s.f in the data set with cats (setting [15]), 16 ng/ml of c.s.f with cats (setting [17]) and 2.4 ng/ml of c.s.f in the data set with cats (setting [18]). The Rectal temperature in the data set with cats (setting [16]) stood at 39.5 °C; in the data set on cats (setting [17]), 41.1 °C; in the data set with cats (setting [18]), 38.8 °C. In addition, the “production of malondialdehyde (MDA) (FIG. 8)” value (“production of malondialdehyde” for short) in data set [4] is reported as “suppressed the production of MDA”.
Compound `C[C@@H]1OC(Nc2ccc(C(=O)O)cc2)[C@H](O)[C@H](O)[C@H]1O` (stereo partly drawn) [Specimen No. 8, Sodium p-aminobenzoate-N--L-rhamnoside] returned a Blood sugar in data set [1] of 110.1 ± 5.5 mg/100 ml. For the same compound, the “Number of revertant colonies TA 100” value in data set [2] is 73 number per plate. In the data set on thoracic aorta, PGI2, this compound showed a PGI2 of 0.18 ± 0.04 ng/mg wet tissue. In addition, the Volume of urine amounted to 5% in data set [3] (1 g/kg p.o., 1 hour, control 2); 39% in data set [3] (setting [5]); 47% in data set [3] (setting [6]); 50% in data set [3] (setting [7]); 65% in data set [3] (setting [8]); 68% in data set [3] (setting [9]). Further, the Volume of urine in data set [3] (5 g/kg p.o., 1 hour, control 2) is on record as 5%; in data set [3] (setting [10]) it was 43%; in data set [3] (setting [11]) it was 60%; in data set [3] (setting [12]), 70%; in data set [3] (setting [13]) it was 77%; in data set [3] (setting [14]), 93%. Moreover, the “Level of 6-keto PGF1α in blood” value turned out to be 3.2 ng/mL in data set [3] (1 g/kg p.o., 6 hours) and 3.7 ng/mL in data set [3] (5 g/kg p.o., 6 hours). The “Amount of PGE in c.s.f.” value was 8 ng/ml of c.s.f in the data set with cats (setting [15]) and 13 ng/ml of c.s.f in the data set on cats (setting [17]). The Rectal temperature is 40.0 °C with cats (setting [16]), 41.5 °C in the data set on cats (setting [17]) and 39.1 °C with cats (setting [18]). Further, the “production of malondialdehyde” value in data set [4] is “suppressed the production of MDA”.
With `O=C(O)c1ccc(NC2O[C@H](CO)[C@@H](O)[C@H](O)[C@@H]2O)cc1` (stereo partly drawn) [Specimen No. 4, Sodium p-aminobenzoate-N--D-mannoside], the Blood sugar in data set [1] amounted to 133.6 ± 8.3 mg/100 ml. Further, the “Number of revertant colonies TA 100” value in data set [2] was found to be 138 number per plate. Further, the PGI2 with thoracic aorta, PGI2 is 0.19 ± 0.04 ng/mg wet tissue. The Volume of urine in data set [3] (1 g/kg p.o., 1 hour, control 2) amounted to 6%; in data set [3] (setting [5]), 40%; in data set [3] (setting [6]), 46%; in data set [3] (setting [7]), 50%; in data set [3] (setting [8]) it was 60%; in data set [3] (setting [9]), 63%. Moreover, the Volume of urine turned out to be 7% in data set [3] (5 g/kg p.o., 1 hour, control 2); 40% in data set [3] (setting [10]); 50% in data set [3] (setting [11]); 52% in data set [3] (setting [12]); 78% in data set [3] (setting [13]); 91% in data set [3] (setting [14]). Besides, the “Level of 6-keto PGF1α in blood” value came to 3.3 ng/mL in data set [3] (1 g/kg p.o., 6 hours) and 3.5 ng/mL in data set [3] (5 g/kg p.o., 6 hours). The “Amount of PGE in c.s.f.” value is 5 ng/ml of c.s.f in the data set with cats (setting [15]), 11 ng/ml of c.s.f in the data set on cats (setting [17]) and 2.6 ng/ml of c.s.f in the data set with cats (setting [18]). In addition, the results for the Rectal temperature with cats (setting [16]), in the data set with cats (setting [17]) and in the data set with cats (setting [18]) were 39.9 °C, 41.3 °C and 39.0 °C, respectively. For the same compound, the “production of malondialdehyde” value in data set [4] is on record as “suppressed the production of MDA”.
